Laboratory results published in patent publication US9518066B2, “GAK modulators” (KATHOLIEKE UNIVERSITEIT LEUVEN, priority 2013, dated 2016).

Molecular target: T1, GAK kinase (Homo sapiens, UniProt O14976)
T1 construct: made in house; host or cells: E. coli host derived from the BL21 strain, infected with T7 phage
T1 sequence (O14976 1-1311): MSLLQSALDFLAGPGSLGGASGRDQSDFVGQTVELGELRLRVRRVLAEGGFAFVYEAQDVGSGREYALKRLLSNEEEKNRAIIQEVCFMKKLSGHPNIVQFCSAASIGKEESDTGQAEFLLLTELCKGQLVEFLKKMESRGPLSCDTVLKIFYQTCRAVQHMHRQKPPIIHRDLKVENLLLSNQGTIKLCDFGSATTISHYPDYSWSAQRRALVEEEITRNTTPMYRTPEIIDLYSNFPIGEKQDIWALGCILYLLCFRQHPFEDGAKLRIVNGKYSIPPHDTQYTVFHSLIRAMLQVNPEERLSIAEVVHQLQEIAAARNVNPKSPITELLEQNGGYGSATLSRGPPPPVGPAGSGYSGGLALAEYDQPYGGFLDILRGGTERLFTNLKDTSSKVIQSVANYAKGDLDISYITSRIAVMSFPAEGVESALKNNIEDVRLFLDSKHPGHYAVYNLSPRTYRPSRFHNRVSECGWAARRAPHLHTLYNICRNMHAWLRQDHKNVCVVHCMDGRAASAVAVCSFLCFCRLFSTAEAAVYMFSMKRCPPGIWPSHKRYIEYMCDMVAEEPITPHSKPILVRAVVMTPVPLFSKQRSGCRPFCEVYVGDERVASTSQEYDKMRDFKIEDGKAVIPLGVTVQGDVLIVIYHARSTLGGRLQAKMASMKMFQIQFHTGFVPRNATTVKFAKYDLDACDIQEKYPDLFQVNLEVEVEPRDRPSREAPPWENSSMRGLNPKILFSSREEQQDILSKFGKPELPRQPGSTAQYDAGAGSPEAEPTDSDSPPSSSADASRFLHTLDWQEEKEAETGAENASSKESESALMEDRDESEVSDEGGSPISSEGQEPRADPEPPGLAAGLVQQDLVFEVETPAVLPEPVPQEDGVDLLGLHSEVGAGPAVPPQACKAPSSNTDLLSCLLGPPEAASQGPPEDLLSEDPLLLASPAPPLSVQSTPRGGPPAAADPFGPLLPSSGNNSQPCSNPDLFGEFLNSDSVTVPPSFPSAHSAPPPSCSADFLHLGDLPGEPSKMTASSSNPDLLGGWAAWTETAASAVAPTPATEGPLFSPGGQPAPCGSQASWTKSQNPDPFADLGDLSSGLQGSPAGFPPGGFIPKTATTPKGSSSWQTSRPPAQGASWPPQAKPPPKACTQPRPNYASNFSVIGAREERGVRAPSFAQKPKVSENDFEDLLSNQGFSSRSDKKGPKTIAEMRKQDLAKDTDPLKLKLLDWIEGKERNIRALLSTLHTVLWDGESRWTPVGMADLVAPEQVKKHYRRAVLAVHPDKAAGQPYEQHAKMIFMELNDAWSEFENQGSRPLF
Assay: GAK binding assay (T7 phage kinase competition binding)
Conditions: for Kd: determined for selected compounds with % control <5 at 10 μM; for remaining binding at 10 µM: single concentration of 10 μM, lower numbers indicate stronger hits, read-out: % Ctrl
Procedure: The compounds of the invention were assayed for their GAK kinase binding affinity using the protocols, as described in Fabian, M. A. et al. A small molecule-kinase interaction map for clinical kinase inhibitors. Nat. Biotechnol.
T7 kinase-tagged phage strains were grown in parallel in 24- or 96-well blocks in an E. coli host derived from the BL21 strain. E. coli were grown to log phase and infected with T7 phage from a frozen stock (multiplicity of infection ˜0.1) and incubated with shaking at 32° C. until lysis (˜90 min). The lysates were centrifuged (6,000 g) and filtered ([…]) to remove cell debris. […] The liganded beads were blocked with excess biotin and washed with blocking buffer (SeaBlock (Pierce), 1% BSA, 0.05% Tween 20, 1 mM DTT) to remove unbound ligand and to reduce nonspecific phage binding. […] Test compounds were prepared as 1,000× stocks in DMSO and rapidly diluted into the aqueous environment (0.1% DMSO final). DMSO (0.1%) was added to control assays lacking a test compound. All reactions were carried out in polystyrene 96-well plates that had been pretreated with blocking buffer in a final volume of 0.1 ml. […] The phage titer in the eluates was measured by standard plaque assays or by quantitative PCR.
The compounds were tested at a single concentration of 10 μM.
[formula] Binding Constant Measurements
Kd(probe) is the binding constant for the interaction between the kinase and the immobilized ligand, [Probe] is the concentration of the immobilized ligand and [test]1/2 is the concentration of the free test compound at the midpoint of the transition. If [Probe] is below Kd(probe) the expression simplifies to Kd(test)=[test]1/2. Under these conditions the binding constants measured for the interaction between kinases and test compounds (Kd(test)) are therefore independent of the affinity of the immobilized ligand for the kinase (Kd(probe)). T7 phage grow to a titer of 10^8-10^10 plaque forming units (PFU)/ml, and the concentration of phage-tagged kinase in the binding reaction is therefore in the low picomolar range. […] Clustering and visualization was performed with Cluster 3.0 (M. Eisen, Stanford University) and Mapletree software (M. Eisen, Stanford University; L. Simirenko, Lawrence Berkeley National Lab).

Question: With `COc1ccc(-c2cnc3c(-c4ccccc4)snc3c2)cc1OC` [Example 82, 6-(3,4-dimethoxyphenyl)-3-phenylisothiazolo[4,3-b]pyridine] as the compound, how does the Kd read?
Answer: The Kd was 260 nM.

Question: And the remaining binding at 10 µM?
Answer: The remaining binding at 10 µM was 0.15%.

Question: How did the Kd turn out when `COc1ccc(-c2cnc3c(N4CCOCC4)snc3c2)cc1` [Example 63, 4-(6-(4-methoxyphenyl)isothiazolo[4,3-b]pyridin-3-yl)morpholine] was run?
Answer: Its Kd is 140 nM.

Question: What about the remaining binding at 10 µM of the same compound?
Answer: Its remaining binding at 10 µM is 0.6%.

Question: Which Kd does the source give for `COc1ccc(-c2cnc3c(-c4ccncc4)snc3c2)cc1OC` [Example 83, 6-(3,4-dimethoxyphenyl)-3-(pyridin-4-yl)isothiazolo[4,3-b]pyridine] here?
Answer: Its Kd is 52 nM.

Question: And the remaining binding at 10 µM?
Answer: The remaining binding at 10 µM was 0.05%.

Question: With `Nc1snc2cc(Br)cnc12` [Example 3, 3-amino-6-bromo-Isothiazolo[4,3-b]pyridine] as the compound, how does the remaining binding at 10 µM read?
Answer: Its remaining binding at 10 µM is 97%.

Question: For `COc1snc2cc(-c3ccsc3)cnc12` [Example 37, 3-methoxy-6-(3-thienyl)-isothiazolo[4,3-b]pyridine], which remaining binding at 10 µM is on record?
Answer: Its remaining binding at 10 µM is 22%.

Question: Which results are given for `CCN(CC)c1snc2cc(-c3ccc(OC)c(OC)c3)cnc12` [Example 79, 6-(3,4-dimethoxyphenyl)-N,N-diethylisothiazolo[4,3-b]pyridin-3-amine]?
Answer: Kd: 210 nM; remaining binding at 10 µM: 0.05%

Question: `COc1snc2cc(-c3cccnc3)cnc12` [Example 35, 3-methoxy-6-(3-pyridyl)-isothiazolo[4,3-b]pyridine] was tested. Which remaining binding at 10 µM did it give?
Answer: The remaining binding at 10 µM was 93%.

Question: How did the remaining binding at 10 µM turn out when `COc1snc2cc(Br)cnc12` [Example 14, 3-methoxy-6-bromo-isothiazolo[4,3-b]pyridine] was run?
Answer: The remaining binding at 10 µM was 100%.

Question: What does the source list for `COc1ccc(-c2cnc3c(-c4ccsc4)snc3c2)cc1OC` [Example 84, 6-(3,4-dimethoxyphenyl)-3-(thiophen-3-yl)isothiazolo[4,3-b]pyridine]?
Answer: Kd: 140 nM; remaining binding at 10 µM: 0%

Question: Which remaining binding at 10 µM does the source give for `COc1cc(Br)c(-c2cnc3c(N4CCC(C)CC4)snc3c2)cc1OC` [Example 86, 6-(2-bromo-4,5-dimethoxyphenyl)-3-(4-methylpiperidin-1-yl)isothiazolo[4,3-b]pyridine] here?
Answer: The remaining binding at 10 µM was 92%.

Question: Which Kd does the source give for `COc1cccc(-c2cnc3c(N4CCOCC4)snc3c2)c1` [Example 61, 4-(6-(3-methoxyphenyl)isothiazolo[4,3-b]pyridin-3-yl)morpholine] here?
Answer: Its Kd is 180 nM.

Question: And the remaining binding at 10 µM?
Answer: The remaining binding at 10 µM was 0.05%.

Question: What does the source list for `COc1ccc(-c2cnc3c(NCC(O)CO)snc3c2)cc1OC` (stereo not shown) [Example 71, 3-(6-(3,4-dimethoxyphenyl)isothiazolo[4,3-b]pyridin-3-ylamino)propane-1,2-diol]?
Answer: Kd: 330 nM; remaining binding at 10 µM: 2.6%

Question: Which Kd does the source give for `CCOc1snc2cc(-c3cc(OC)c(OC)cc3Br)cnc12` [Example 87, 6-(2-bromo-4,5-dimethoxyphenyl)-3-ethoxyisothiazolo[4,3-b]pyridine] here?
Answer: Its Kd is 330 nM.

Question: What about the remaining binding at 10 µM of the same compound?
Answer: Its remaining binding at 10 µM is 4.3%.

Question: What does the source list for `CNC(=O)c1ccc(-c2cnc3c(N4CCOCC4)snc3c2)cc1` [Example 54, N-Methyl-4-(3-morpholinoisothiazolo[4,3-b]pyridin-6-yl)benzamide]?
Answer: Kd: 88 nM; remaining binding at 10 µM: 0.05%

Question: Which remaining binding at 10 µM does the source give for `COC(=O)c1ccc(-c2cnc3c(N4CCOCC4)snc3c2)cc1` [Example 53, Methyl 4-(3-morpholinoisothiazolo[4,3-b]pyridin-6-yl)benzoate] here?
Answer: Its remaining binding at 10 µM is 9%.

Question: For `COc1ccc(-c2cnc3c(N4CCC5(CC4)OCCO5)snc3c2)cc1OC` [Example 81, 8-(6-(3,4-dimethoxyphenyl)isothiazolo[4,3-b]pyridin-3-yl)-1,4-dioxa-8-azaspiro[4.5]decane], which remaining binding at 10 µM is on record?
Answer: The remaining binding at 10 µM was 12%.

Question: With `COc1ccc(-c2cnc3c(OC)snc3c2)cc1OC` [Example 36, 3-methoxy-6-(3,4-dimethoxyphenyl)-isothiazolo[4,3-b]pyridine] as the compound, how does the remaining binding at 10 µM read?
Answer: The remaining binding at 10 µM was 19%.

Question: With `COc1ccc(-c2cnc3c(N4CCOCC4)snc3c2)cc1OC(C)=O` [Example 62, 2-methoxy-5-(3-morpholinoisothiazolo[4,3-b]pyridin-6-yl)phenyl acetate] as the compound, how does the Kd read?
Answer: Its Kd is 82 nM.

Question: And the remaining binding at 10 µM?
Answer: Its remaining binding at 10 µM is 0%.

Question: For `CCOC(=O)N1CCC(Nc2snc3cc(-c4ccc(OC)c(OC)c4)cnc23)CC1` [Example 72, ethyl 4-(6-(3,4-dimethoxyphenyl)isothiazolo[4,3-b]pyridin-3-ylamino)piperidine-1-carboxylate], which remaining binding at 10 µM is on record?
Answer: The remaining binding at 10 µM was 40%.

Question: Which results are given for `COc1ccc(-c2cnc3c(N4CCCC(O)C4)snc3c2)cc1OC` (stereo not shown) [Example 68, 1-(6-(3,4-dimethoxyphenyl)isothiazolo[4,3-b]pyridin-3-yl)piperidin-3-ol]?
Answer: Kd: 69 nM; remaining binding at 10 µM: 0.05%

Question: For `COc1ccc(-c2cnc3c(NCCCCCO)snc3c2)cc1OC` [Example 67, 5-(6-(3,4-dimethoxyphenyl)isothiazolo[4,3-b]pyridin-3-ylamino)pentan-1-ol], which Kd is on record?
Answer: Its Kd is 210 nM.

Question: What about the remaining binding at 10 µM of the same compound?
Answer: The remaining binding at 10 µM was 0.85%.

Question: Which remaining binding at 10 µM does the source give for `Brc1cnc2c(N3CCOCC3)snc2c1` [Example 11, 6-bromo-3-morpholino-isothiazolo[4,3-b]pyridine] here?
Answer: The remaining binding at 10 µM was 50%.

Question: Which Kd does the source give for `COC(=O)c1ccc(-c2cnc3c(N4CCOCC4)snc3c2)cc1OC` [Example 46, Methyl 2-methoxy-4-(3-morpholinoisothiazolo[4,3-b]pyridin-6-yl)benzoate] here?
Answer: Its Kd is 19 nM.

Question: What about the remaining binding at 10 µM of the same compound?
Answer: Its remaining binding at 10 µM is 2.8%.

Question: With `COc1ccc(-c2cnc3c(N4CCC(=O)CC4)snc3c2)cc1OC` [Example 65, 1-(6-(3,4-dimethoxyphenyl)isothiazolo[4,3-b]pyridin-3-yl)piperidin-4-one] as the compound, how does the Kd read?
Answer: Its Kd is 31 nM.

Question: What about the remaining binding at 10 µM of the same compound?
Answer: The remaining binding at 10 µM was 0%.

Question: `COc1snc2cc(-c3ccccc3)cnc12` [Example 33, 3-methoxy-6-phenyl-isothiazolo[4,3-b]pyridine] was tested. Which remaining binding at 10 µM did it give?
Answer: Its remaining binding at 10 µM is 9.4%.

Question: Which remaining binding at 10 µM does the source give for `COc1ccc(-c2cnc3csnc3c2)cc1OC` [Example 85, 6-(3,4-dimethoxyphenyl)isothiazolo[4,3-b]pyridine] here?
Answer: The remaining binding at 10 µM was 31%.

Question: With “6-bromo-6-ethanolamino-isothiazolo[4,3-b]pyridine [Example 12]” as the compound, how does the “% Ctrl” value (10 µM) read?
Answer: The value was 62%.

Question: For `COc1cc(Br)c(-c2cnc3c(N4CCOCC4)snc3c2)cc1OC` [Example 60, 4-(6-(2-bromo-4,5-dimethoxyphenyl)isothiazolo[4,3-b]pyridin-3-yl)morpholine], which Kd is on record?
Answer: Its Kd is 180 nM.

Question: And the remaining binding at 10 µM?
Answer: The remaining binding at 10 µM was 1.1%.
